Reference: ChEMBL document CHEMBL1142532, “Modular synthesis of non-peptidic bivalent NPY Y1 receptor antagonists” (Bioorg Med Chem, 2008)

Assays:
[1] = biological target: T1, Neuropeptide Y receptor type 1 (Homo sapiens) (UniProt P25929); experiment: Antagonist activity at NPY Y1 receptor in HEL cells assessed as inhibition of NPY-induced increase in intracellular calcium mobilization by Fura-2 assay; assay type: functional, cell-based
T1 sequence (whole entry): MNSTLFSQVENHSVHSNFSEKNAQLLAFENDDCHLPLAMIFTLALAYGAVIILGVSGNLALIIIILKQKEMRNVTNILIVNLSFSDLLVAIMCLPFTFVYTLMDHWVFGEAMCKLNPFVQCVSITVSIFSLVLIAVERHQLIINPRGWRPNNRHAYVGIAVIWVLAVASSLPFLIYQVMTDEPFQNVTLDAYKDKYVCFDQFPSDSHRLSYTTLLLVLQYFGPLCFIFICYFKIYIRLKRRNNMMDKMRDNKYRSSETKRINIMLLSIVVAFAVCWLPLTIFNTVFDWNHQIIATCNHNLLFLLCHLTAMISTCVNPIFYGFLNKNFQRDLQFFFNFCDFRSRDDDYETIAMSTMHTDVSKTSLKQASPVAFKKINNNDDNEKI

[2] = biological target: T2, Neuropeptide Y receptor type 1 (Homo sapiens, UniProt P25929); experiment: Displacement of NG-([2,3-3H]propionyl)-BIBP-3226 from NPY Y1 receptor in human SK-N-MC cells; assay type: cell-based
T2 sequence (P25929 whole entry): T1 sequence (whole entry)

| Compound | Kb [1] [nM] | Ki [2] [nM] |
| --- | --- | --- |
| N/C(=N/C(=O)CCCn1cc(COCCOCCOCCOCCOCc2cn(CCCC(=O)/N=C(\N)NCCC[C@@H](NC(=O)C(c3ccccc3)c3ccccc3)C(=O)NCc3ccc(O)cc3)nn2)nn1)NCCC[C@@H](NC(=O)C(c1ccccc1)c1ccccc1)C(=O)NCc1ccc(O)cc1 | 1.8 | 58 |
| N/C(=N/C(=O)CCCn1cc(-c2ccc(-c3cn(CCCC(=O)/N=C(\N)NCCC[C@@H](NC(=O)C(c4ccccc4)c4ccccc4)C(=O)NCc4ccc(O)cc4)nn3)cc2)nn1)NCCC[C@@H](NC(=O)C(c1ccccc1)c1ccccc1)C(=O)NCc1ccc(O)cc1 | 0.6 | 43 |
| N/C(=N/C(=O)COCCOCCOCC(=O)/N=C(\N)NCCC[C@@H](NC(=O)C(c1ccccc1)c1ccccc1)C(=O)NCc1ccc(O)cc1)NCCC[C@@H](NC(=O)C(c1ccccc1)c1ccccc1)C(=O)NCc1ccc(O)cc1 | 7 | 6.1 |
| N/C(=N/C(=O)CCCn1cc(-c2ccccc2)nn1)NCCC[C@@H](NC(=O)C(c1ccccc1)c1ccccc1)C(=O)NCc1ccc(O)cc1 | 0.9 | 49 |
| N/C(=N/C(=O)c1ccc(Cn2cc(CN(Cc3cn(Cc4ccc(C(=O)/N=C(/N)NCCC[C@@H](NC(=O)C(c5ccccc5)c5ccccc5)C(=O)NCc5ccc(O)cc5)cc4)nn3)Cc3cn(Cc4ccc(C(=O)/N=C(/N)NCCC[C@@H](NC(=O)C(c5ccccc5)c5ccccc5)C(=O)NCc5ccc(O)cc5)cc4)nn3)nn2)cc1)NCCC[C@@H](NC(=O)C(c1ccccc1)c1ccccc1)C(=O)NCc1ccc(O)cc1 |  | > 50000 |
